Measured values from publication PMC5218480 (PLoS ONE, 2017).

Test system: MV-4-11 cells
Assay: Gene expression microarray analysis (Affymetrix PrimeView) and GSEA
Assay type: cell-based, human
Design: RFU PODN (11730768_x_at) / Fold change /veh PODN (11730768_x_at) / RFU LINC00158 (11744669_a_at) / Fold change /veh LINC00158 (11744669_a_at) / RFU DUSP10 (11751237_a_at) / Fold change /veh DUSP10 (11751237_a_at) / RFU ID3 (11757404_x_at) / Fold change /veh ID3 (11757404_x_at) / RFU PLEKHG5 (11737974_s_at) / Fold change /veh PLEKHG5 (11737974_s_at) / RFU LRRC4B (11730491_at) / Fold change /veh LRRC4B (11730491_at) / RFU GIMAP4 (11747438_a_at) / Fold change /veh GIMAP4 (11747438_a_at) / RFU KRT8 (11758183_x_at) / Fold change /veh KRT8 (11758183_x_at) / RFU CNN1 (11734310_a_at) / Fold change /veh CNN1 (11734310_a_at) / RFU VPS37D (11726825_at) / Fold change /veh VPS37D (11726825_at) / RFU C10orf10 (11716522_x_at) / Fold change /veh C10orf10 (11716522_x_at) / RFU KIR2DL2 /// KIR2DL4 /// KIR2DL5A /// KIR2DL5B /// KIR2DS1 /// KIR2DS2 /// KIR2DS3 /// KIR2DS4 /// KIR3DL3 /// KIR3DL3 /// KIR3DS1 (11738374_at) / Fold change /veh KIR2DL2 /// KIR2DL4 /// KIR2DL5A /// KIR2DL5B /// KIR2DS1 /// KIR2DS2 /// KIR2DS3 /// KIR2DS4 /// KIR3DL3 /// KIR3DL3 /// KIR3DS1 (11738374_at) / RFU C1QL1 (11718748_at) / Fold change /veh C1QL1 (11718748_at) / RFU TMPRSS4 (11747572_a_at) / Fold change /veh TMPRSS4 (11747572_a_at) / RFU HAMP (11756126_x_at) / Fold change /veh HAMP (11756126_x_at) / RFU RNFT2 (11725882_a_at) / Fold change /veh RNFT2 (11725882_a_at) / RFU NR4A2 (11747474_a_at) / Fold change /veh NR4A2 (11747474_a_at) / RFU ABCC12 (11746883_a_at) / Fold change /veh ABCC12 (11746883_a_at) / RFU TMEM136 (11760407_x_at) / Fold change /veh TMEM136 (11760407_x_at) / RFU CLDN22 /// WWC2 (11732394_at) / Fold change /veh CLDN22 /// WWC2 (11732394_at) / RFU HLA-DPB1 (11760878_x_at) / Fold change /veh HLA-DPB1 (11760878_x_at) / RFU SPINT1 (11716480_a_at) / Fold change /veh SPINT1 (11716480_a_at) / RFU GAP43 (11754022_s_at) / Fold change /veh GAP43 (11754022_s_at) / RFU A4GNT (11735810_at) / Fold change /veh A4GNT (11735810_at) / RFU PRB3 (11715151_x_at) / Fold change /veh PRB3 (11715151_x_at) / RFU TUBB4B (11761932_at) / Fold change /veh TUBB4B (11761932_at) / RFU CAPN14 (11732068_a_at) / Fold change /veh CAPN14 (11732068_a_at) / RFU TMCC2 (11721928_a_at) / Fold change /veh TMCC2 (11721928_a_at) / RFU IRGQ (11745062_a_at) / Fold change /veh IRGQ (11745062_a_at) / RFU FAM174B (11720279_a_at) / Fold change /veh FAM174B (11720279_a_at) / RFU TMPRSS4 (11748680_a_at) / Fold change /veh TMPRSS4 (11748680_a_at) / RFU FAM212B (11763350_a_at) / Fold change /veh FAM212B (11763350_a_at) / RFU PLEKHG5 (11743358_a_at) / Fold change /veh PLEKHG5 (11743358_a_at) / RFU ZSCAN30 (11745921_a_at) / Fold change /veh ZSCAN30 (11745921_a_at) / RFU CMKLR1 (11741424_a_at) / Fold change /veh CMKLR1 (11741424_a_at) / RFU LOC101060620 /// MAPK8IP1 (11723275_at) / Fold change /veh LOC101060620 /// MAPK8IP1 (11723275_at) / RFU SPTSSB (11747773_x_at) / Fold change /veh SPTSSB (11747773_x_at) / RFU PRSS12 (11739890_at) / Fold change /veh PRSS12 (11739890_at) / RFU BIN1 (11741810_x_at) / Fold change /veh BIN1 (11741810_x_at) / RFU WNT11 (11732464_a_at) / Fold change /veh WNT11 (11732464_a_at) / RFU C10orf10 (11716521_a_at) / Fold change /veh C10orf10 (11716521_a_at) / RFU C5orf56 (11738089_at) / Fold change /veh C5orf56 (11738089_at) / RFU CYB561 (11721691_x_at) / Fold change /veh CYB561 (11721691_x_at) / RFU ANKRD19P (11752326_a_at) / Fold change /veh ANKRD19P (11752326_a_at) / RFU OR2T12 /// OR2T33 /// OR2T8 (11738714_s_at) / Fold change /veh OR2T12 /// OR2T33 /// OR2T8 (11738714_s_at) / RFU VCAN (11748164_a_at) / Fold change /veh VCAN (11748164_a_at) / RFU JSRP1 (11732532_at) / Fold change /veh JSRP1 (11732532_at) / RFU KRTAP10-11 (11738290_x_at) / Fold change /veh KRTAP10-11 (11738290_x_at) / RFU MYO3A (11730013_a_at) / Fold change /veh MYO3A (11730013_a_at) / RFU EBF3 (11725865_a_at) / Fold change /veh EBF3 (11725865_a_at) / RFU CAMK2N1 (11719241_x_at) / Fold change /veh CAMK2N1 (11719241_x_at) / RFU C5orf56 (11738088_a_at) / Fold change /veh C5orf56 (11738088_a_at) / RFU OLFML3 (11715873_a_at) / Fold change /veh OLFML3 (11715873_a_at) / RFU LOC100653217 /// NTM (11731650_a_at) / Fold change /veh LOC100653217 /// NTM (11731650_a_at) / RFU MAPK11 (11762145_a_at) / Fold change /veh MAPK11 (11762145_a_at) / RFU FIZ1 (11724087_x_at) / Fold change /veh FIZ1 (11724087_x_at) / RFU OASL (11726364_x_at) / Fold change /veh OASL (11726364_x_at) / RFU SOX15 (11748057_x_at) / Fold change /veh SOX15 (11748057_x_at) / RFU CD79A (11719716_a_at) / Fold change /veh CD79A (11719716_a_at) / RFU HIST1H1D (11736915_at) / Fold change /veh HIST1H1D (11736915_at) / RFU CASKIN2 (11723855_a_at) / Fold change /veh CASKIN2 (11723855_a_at) / RFU LOC730098 (11760151_x_at) / Fold change /veh LOC730098 (11760151_x_at) / RFU OR4N2 (11742367_at) / Fold change /veh OR4N2 (11742367_at) / RFU PRRT2 (11749266_a_at) / Fold change /veh PRRT2 (11749266_a_at) / RFU SNX32 (11753110_a_at) / Fold change /veh SNX32 (11753110_a_at) / RFU CDHR5 (11726645_a_at) / Fold change /veh CDHR5 (11726645_a_at) / RFU RCAN1 (11760418_a_at) / Fold change /veh RCAN1 (11760418_a_at) / RFU FAM167A (11723789_a_at) / Fold change /veh FAM167A (11723789_a_at) / RFU FAM26E (11764081_at) / Fold change /veh FAM26E (11764081_at) / RFU ISYNA1 (11749810_s_at) / Fold change /veh ISYNA1 (11749810_s_at) / RFU ACY1 (11761880_at) / Fold change /veh ACY1 (11761880_at) / RFU 11764098_at / Fold change /veh 11764098_at / RFU SAMD14 (11745864_x_at) / Fold change /veh SAMD14 (11745864_x_at) / RFU NPB (11741838_a_at) / Fold change /veh NPB (11741838_a_at) / RFU TMPRSS6 (11731388_a_at) / Fold change /veh TMPRSS6 (11731388_a_at) / RFU KRTAP10-2 (11738614_at) / Fold change /veh KRTAP10-2 (11738614_at) / RFU ARHGAP8 /// PRR5-ARHGAP8 (11727945_x_at) / Fold change /veh ARHGAP8 /// PRR5-ARHGAP8 (11727945_x_at) / RFU KRTAP5-7 /// NADSYN1 (11734609_at) / Fold change /veh KRTAP5-7 /// NADSYN1 (11734609_at) / RFU RASL12 (11751679_a_at) / Fold change /veh RASL12 (11751679_a_at) / RFU CDKN2B (11736163_a_at) / Fold change /veh CDKN2B (11736163_a_at) / RFU PRF1 (11729649_at) / Fold change /veh PRF1 (11729649_at) / RFU, ZNF638 /// ZNF638-IT1 / Fold change vs veh, ZNF638 /// ZNF638-IT1 / RFU, PANK3 / Fold change vs veh, PANK3 / RFU, SH3YL1 / Fold change vs veh, SH3YL1 / RFU, ZEB2 / Fold change vs veh, ZEB2 / RFU, NRIP1 / Fold change vs veh, NRIP1 / RFU, PTTG1IP / Fold change vs veh, PTTG1IP / RFU, CAPN2 / Fold change vs veh, CAPN2 / RFU, MED14 / Fold change vs veh, MED14 / RFU, SNORA58 / Fold change vs veh, SNORA58 / RFU, C1orf63 / Fold change vs veh, C1orf63 / RFU, LRRFIP1 / Fold change vs veh, LRRFIP1 / RFU, NDUFAF7 / Fold change vs veh, NDUFAF7 / RFU, SLC12A2 / Fold change vs veh, SLC12A2 / RFU, IBTK / Fold change vs veh, IBTK / RFU, ESF1 / Fold change vs veh, ESF1 / Fold change vs veh, TMEM50B / RFU, TAOK1 / Fold change vs veh, TAOK1 / RFU, ACBD3 / Fold change vs veh, ACBD3 / RFU, TMA16 / Fold change vs veh, TMA16 / RFU, RWDD3 / Fold change vs veh, RWDD3 / RFU, BCAT1 / Fold change vs veh, BCAT1 / RFU, EDEM3 / Fold change vs veh, EDEM3 / RFU, TMEM33 / Fold change vs veh, TMEM33 / RFU, WDR75 / Fold change vs veh, WDR75 / RFU, AHCTF1 / Fold change vs veh, AHCTF1 / RFU, TFRC / Fold change vs veh, TFRC / RFU, ZDHHC17 / Fold change vs veh, ZDHHC17 / RFU, NOM1 / Fold change vs veh, NOM1 / RFU, ARL8B / Fold change vs veh, ARL8B / RFU, ZBTB11 / Fold change vs veh, ZBTB11 / RFU, TAMM41 / Fold change vs veh, TAMM41 / RFU, KIAA1704 /// LOC100996395 / Fold change vs veh, KIAA1704 /// LOC100996395 / RFU, ING1 / Fold change vs veh, ING1 / RFU, TRMT61B / Fold change vs veh, TRMT61B / RFU, FUBP3 / Fold change vs veh, FUBP3 / RFU, TP53 / Fold change vs veh, TP53 / RFU, TNKS2 / Fold change vs veh, TNKS2 / RFU, ZFP14 / Fold change vs veh, ZFP14 / RFU, ACTR2 / Fold change vs veh, ACTR2 / RFU, PPP3R1 / Fold change vs veh, PPP3R1 / RFU, PIK3R1 / Fold change vs veh, PIK3R1 / RFU, HNRNPA1 / Fold change vs veh, HNRNPA1 / RFU, RNF170 / Fold change vs veh, RNF170 / RFU, ZNF28 / Fold change vs veh, ZNF28 / RFU, RNGTT / Fold change vs veh, RNGTT / RFU, OGT / Fold change vs veh, OGT / RFU, BRD1 / Fold change vs veh, BRD1 / RFU, MARS / Fold change vs veh, MARS / RFU, ZNF655 / Fold change vs veh, ZNF655 / RFU, FAHD1 / Fold change vs veh, FAHD1 / RFU, BDP1 / Fold change vs veh, BDP1 / RFU, LRRCC1 / Fold change vs veh, LRRCC1 / RFU, ARID1A / Fold change vs veh, ARID1A / RFU, ZNF146 / Fold change vs veh, ZNF146 / RFU, ZNF330 / Fold change vs veh, ZNF330 / RFU, GPN3 / Fold change vs veh, GPN3 / RFU, C9orf123 / Fold change vs veh, C9orf123 / RFU, N4BP2L2 / Fold change vs veh, N4BP2L2 / RFU, ARFIP1 / Fold change vs veh, ARFIP1 / RFU, FAM179B / Fold change vs veh, FAM179B / RFU, BCL10 / Fold change vs veh, BCL10 / RFU, UHRF1BP1L / Fold change vs veh, UHRF1BP1L / RFU, BET1 / Fold change vs veh, BET1 / RFU, CNOT2 / Fold change vs veh, CNOT2 / RFU, ZNF268 / Fold change vs veh, ZNF268 / Fold change vs veh, ZNF507 / RFU, DGCR2 / Fold change vs veh, DGCR2 / RFU, WDSUB1 / Fold change vs veh, WDSUB1 / Fold change vs veh, HSP90B1 /// MIR3652 / RFU, ADSS / Fold change vs veh, ADSS / RFU, GK / Fold change vs veh, GK / RFU, ZNF148 / Fold change vs veh, ZNF148 / RFU, TAF9 / Fold change vs veh, TAF9 / RFU, SLC1A5 / Fold change vs veh, SLC1A5 / RFU, SLMO2 / Fold change vs veh, SLMO2 / RFU, ABCC4 / Fold change vs veh, ABCC4 / RFU, LOC101060439 /// RAP1B / Fold change vs veh, LOC101060439 /// RAP1B / RFU, RFX7 / Fold change vs veh, RFX7 / RFU, GTPBP10 / Fold change vs veh, GTPBP10 / RFU, CNEP1R1 / Fold change vs veh, CNEP1R1 / RFU, BIVM-ERCC5 /// ERCC5 / Fold change vs veh, BIVM-ERCC5 /// ERCC5 / RFU, ILF3 / Fold change vs veh, ILF3 / RFU 11762660_at / Fold change /veh 11762660_at / RFU VCAN (11757783_s_at) / Fold change /veh VCAN (11757783_s_at) / RFU DDX43 (11728927_at) / Fold change /veh DDX43 (11728927_at) / RFU KRT8 (11758188_x_at) / Fold change /veh KRT8 (11758188_x_at) / RFU NKD1 (11759106_at) / Fold change /veh NKD1 (11759106_at) / RFU SRD5A1 (11742802_a_at) / Fold change /veh SRD5A1 (11742802_a_at) / RFU TPSAB1 /// TPSB2 (11721975_s_at) / Fold change /veh TPSAB1 /// TPSB2 (11721975_s_at) / RFU GSTM3 (11746129_a_at) / Fold change /veh GSTM3 (11746129_a_at) / RFU IL23R (11737362_x_at) / Fold change /veh IL23R (11737362_x_at) / RFU TMEM51 (11727254_a_at) / Fold change /veh TMEM51 (11727254_a_at) / RFU PIWIL2 (11732686_x_at) / Fold change /veh PIWIL2 (11732686_x_at) / RFU ORM1 (11744905_x_at) / Fold change /veh ORM1 (11744905_x_at) / RFU CCDC152 (11743942_at) / Fold change /veh CCDC152 (11743942_at) / RFU ECM1 (11717891_a_at) / Fold change /veh ECM1 (11717891_a_at) / RFU IL23R (11748794_a_at) / Fold change /veh IL23R (11748794_a_at) / RFU TNFAIP8L3 (11732012_x_at) / Fold change /veh TNFAIP8L3 (11732012_x_at) / RFU MBOAT4 (11741988_at) / Fold change /veh MBOAT4 (11741988_at) / RFU 11764193_at / Fold change /veh 11764193_at / RFU TMEM53 (11763286_at) / Fold change /veh TMEM53 (11763286_at) / RFU MAGEB2 (11727129_at) / Fold change /veh MAGEB2 (11727129_at) / RFU TMEM200A (11744735_a_at) / Fold change /veh TMEM200A (11744735_a_at) / RFU CCDC152 (11751479_a_at) / Fold change /veh CCDC152 (11751479_a_at) / RFU FAM211A (11726209_a_at) / Fold change /veh FAM211A (11726209_a_at) / RFU RGS16 (11746705_a_at) / Fold change /veh RGS16 (11746705_a_at) / RFU VCAN (11755009_s_at) / Fold change /veh VCAN (11755009_s_at) / RFU RHOB (11743442_s_at) / Fold change /veh RHOB (11743442_s_at) / RFU RGS16 (11720943_a_at) / Fold change /veh RGS16 (11720943_a_at) / RFU RGS16 (11720944_at) / Fold change /veh RGS16 (11720944_at) / RFU, VPS4B / Fold change vs veh, VPS4B / RFU, CREB1 / Fold change vs veh, CREB1 / RFU, DNAJC13 / Fold change vs veh, DNAJC13 / RFU, GNAQ / Fold change vs veh, GNAQ / RFU, CDK5R1 / Fold change vs veh, CDK5R1 / RFU, ZRANB3 / Fold change vs veh, ZRANB3 / RFU, CUL4A / Fold change vs veh, CUL4A / RFU, CCNY / Fold change vs veh, CCNY / RFU, UFL1 / Fold change vs veh, UFL1 / RFU, COG3 / Fold change vs veh, COG3 / RFU, DIAPH2 / Fold change vs veh, DIAPH2 / RFU, SKA2 / Fold change vs veh, SKA2 / RFU, AFF3 / Fold change vs veh, AFF3 / RFU, LMF1 / Fold change vs veh, LMF1 / RFU, IPO11 / Fold change vs veh, IPO11 / RFU, DFFB / Fold change vs veh, DFFB / RFU, FOXP1 / Fold change vs veh, FOXP1 / RFU, CARD8 / Fold change vs veh, CARD8 / RFU, STRN3 / Fold change vs veh, STRN3 / RFU, ADK / Fold change vs veh, ADK / RFU, RASSF2 / Fold change vs veh, RASSF2 / RFU, WIPF1 / Fold change vs veh, WIPF1 / RFU, LARP1B / Fold change vs veh, LARP1B / RFU, RASA1 / Fold change vs veh, RASA1 / RFU, RB1 / Fold change vs veh, RB1 / RFU, PPFIA1 / Fold change vs veh, PPFIA1 / RFU, MAT2A / Fold change vs veh, MAT2A / RFU, CCT5 / Fold change vs veh, CCT5 / RFU, WDR92 / Fold change vs veh, WDR92 / RFU, CUX1 / Fold change vs veh, CUX1 / RFU, TTC7A / Fold change vs veh, TTC7A / RFU, TMEM135 / Fold change vs veh, TMEM135 / RFU, DEPTOR / Fold change vs veh, DEPTOR / RFU, CPM / Fold change vs veh, CPM / RFU, DNAJB6 / Fold change vs veh, DNAJB6 / RFU, CACNA2D3 / Fold change vs veh, CACNA2D3 / RFU, DTX4 / Fold change vs veh, DTX4 / RFU, TFCP2 / Fold change vs veh, TFCP2 / RFU, GMCL1 /// GMCL1P1 / Fold change vs veh, GMCL1 /// GMCL1P1 / RFU, AEBP2 / Fold change vs veh, AEBP2 / RFU, SNHG1 /// SNORD22 /// SNORD25 /// SNORD26 /// SNORD27 /// SNORD28 /// SNORD29 /// SNORD31 / Fold change vs veh, SNHG1 /// SNORD22 /// SNORD25 /// SNORD26 /// SNORD27 /// SNORD28 /// SNORD29 /// SNORD31 / Fold change (Aza/veh), C12orf56 (ProbeSet 11735607_a_at) / Fold change (ACY-1035/veh), C12orf56 (ProbeSet 11735607_a_at) / Fold change (Aza/veh), FGFR1OP (ProbeSet 11751329_s_at) / Fold change (ACY-1035/veh), FGFR1OP (ProbeSet 11751329_s_at) / Fold change (Aza/veh), VPS36 (ProbeSet 11739960_a_at) / Fold change (ACY-1035/veh), VPS36 (ProbeSet 11739960_a_at) / RFU SYPL1 (11715823_x_at) / Fold change /veh SYPL1 (11715823_x_at) / RFU IGFBP7 (11715501_s_at) / Fold change /veh IGFBP7 (11715501_s_at) / RFU REEP3 (11722064_at) / Fold change /veh REEP3 (11722064_at) / RFU IGLL1 (11728026_x_at) / Fold change /veh IGLL1 (11728026_x_at): dose or concentration left out as unconfirmed
Settings: ProbeSet 11719632_a_at; LIST B

SMILES: Nc1ncn([C@@H]2O[C@H](CO)[C@@H](O)[C@H]2O)c(=O)n1 [azacitidine]
- Fold change vs veh, ABCC4: 0.85
